Data as given in paper PMC6342617 (Cancer chemotherapy and pharmacology, 2018).

Key:
[1] = Tivantinib steady-state plasma pharmacokinetics; format: in vivo, human
[2] = system: germ cell tumors; conditions: patients with germ cell tumors; cited from earlier work
[3] = system: gastric cancer; conditions: patients with gastric cancer; cited from earlier work
[4] = system: hepatocellular carcinoma; conditions: patients with hepatocellular carcinoma; cited from earlier work
[5] = system: triple-negative breast cancer; conditions: patients with triple-negative breast cancer; cited from earlier work
[6] = system: substrates of CYP1A, CYP2C9, CYP2C19, CYP3A4 or P-glycoprotein; conditions: cited from earlier work
[7] = phase I dose escalation study; cited from earlier work
[8] = system: cytochrome P450 enzymes; conditions: ref Hycamtin® prescribing information; cited from earlier work

SMILES	AUC0–8 hr ([1]; Dose Level 1 (tivantinib 240 mg), n=1)	Clsys (oral clearance), range of observed values ([1]; Dose Levels −1 and A1 (tivantinib 120 mg), n=11) [L/h]	AUC(0-t) ([1]; human, plasma, oral, AUC0–12 hr, median, All Dose Levels, n=12) [ng·h/mL]	Responses, monotherapy [2]	Responses, monotherapy [3]	Responses, monotherapy [4]	Response rate, monotherapy [5] [%]	Interaction with substrates of CYP1A, CYP2C9, CYP2C19, CYP3A4 or P-glycoprotein [6]	Maximum tolerated dose, single agent [7]	Induction or inhibition of cytochrome P450 enzymes [8]
O=C1NC(=O)[C@@H](c2cn3c4c(cccc24)CCC3)[C@@H]1c1c[nH]c2ccccc12 [tivantinib]	7,243 ng × hr/ml	2.4 to 44.5	10500	No responses were seen	No responses were seen	No responses were seen	5	has not been shown to have a significant interaction	no maximum tolerated dose was identified	–
CC[C@@]1(O)C(=O)OCc2c1cc1n(c2=O)Cc2cc3c(CN(C)C)c(O)ccc3nc2-1 [topotecan]	–	–	–	–	–	–	–	–	–	has not been shown to induce or inhibit cytochrome P450 enzymes
